# Data from paper PMC10030409 (Investigational New Drugs, 2023).
# Like-named read-outs stand apart in the source and are kept apart here.
# Key:
# clinical [1] = conditions: human, in vivo
# Method: Patients were asked to determine the time of drug intake. The collected serum and whole peripheral blood samples were stored at − 80 °C until analysis.
# Several candidate PopPK models with different structures were compared based on the goodness-of-fit (GOF) plots and the objective function value (OFV) expressed as minus twice log likelihood (−2LL), and the difference in OFV between the two nested models was statistically evaluated using the chi-square test (the decrease in −2LL >3.84, p < 0.05, was considered statistically significant).
# Stepwise covariate analysis was performed to evaluate the effect of covariates on clearance and volume of distribution. The significance of the effect was assessed by the −2LL value; decrease in −2LL of >3.84 (p < 0.050) for the forward addition was considered significant. The impact of body weight (BW), albumin (ALB), age (AGE), sex, aspartate aminotransferase (AST), and alanine aminotransferase (ALT) levels on CLparent/F, CLm5/F, and CLm7/F was evaluated. In addition, BW, ALB, AGE, and sex were evaluated on Vparent/F, Vm5/F, and Vm7/F. The covariates were modeled as shown in equation (c) in the power form for continuous covariates, equation (d) with log-transformation for continuous covariates with outliers, and equation (e) for categorical covariates: […]
# The candidate PopPK models were evaluated by goodness of fit, ∆−2LL values, η-shrinkage, and relative standard error (RSE%). […] The uncertainty of the parameters was estimated by performing a bootstrap. The original dataset was randomly resampled to generate 1000 samples, and the parameters estimated from the successful runs were compared to those estimated from the original dataset.
# [2] = cited from earlier work; for Fraction of metabolite conversion from the parent: fixed in the PopPK model
# wild-type EGFR = conditions: higher potency; cited from earlier work
# [3] = in vivo
# Method: Polymorphisms in EGFR, ABCG2, ABCB1, and POR (Online Resource, Appendix A) were analyzed using TaqMan® probe-based assays (Applied Biosystems, Foster City, CA, USA), whereas the ABCG2 polymorphism (rs2231137) was studied using the CycleavePCR® assay (TaKaRa Bio Inc., Kusatsu, Japan). The detailed genotyping method is provided in the Online Resource (Appendix A).
# Germline polymorphism and the worst grade of AE occurring in each patient were analyzed for pharmacogenomics–toxicity relationship analysis.
# The cut-off date for data collection was April 4, 2022. Continuous variables such as AUC0–24 and laboratory data are presented as median (interquartile range, IQR); estimates of PopPK parameters are presented as mean (standard error, SE). […] Receiver operating characteristic (ROC) curve analysis was used to evaluate the discrimination potential of AUC0–24 for grade ≥ 2 AEs. […] All p-values were two-sided, and statistical significance was set at p < 0.05.
# The EGFR polymorphisms (rs2293348, rs4947492, rs11977388, rs2227983, and rs884225), ABCG2 (rs2231142 and rs2622604), ABCB1 (rs1128503, rs1045642, and rs2032582), and POR (rs17685 and rs1057868) were analyzed using Taqman® probe-based assays (Applied Biosystems, CA, USA). The probes (FAM/VIC-fluorescent) and primers for these polymorphisms were purchased from Applied Biosystems (TaqMan® SNP Genotyping Assay ID: C _ 144945_20, C _ 27876021_10, C _ 321871_10, C _ 16170352_20, and C _ 9501579_10 for EGFR polymorphisms; C _ 15854163_70 and C _ 9510352_10 for ABCG2 polymorphisms; C _ 7586662_10, C _ 7586657_20, C_11711720D_40, and C_11711720C_30 for ABCB1 polymorphisms; and C _ 8890133_30 and C _ 8890131_30 for POR polymorphisms). The real-time PCR reaction mix included 4.5 ng of DNA template diluted in 4.5 µL DNase‑Free distilled water, 5 µL TaqMan® Universal Master Mix II with UNG (Uracil-N-Glycosylase), and 0.5 µL TaqMan® SNP Genotyping Assay mix, including the primers and probes, in a total volume of 10 µL. The reactions were performed under the following conditions: UNG incubation at 50 °C for 2 min and polymerase activation at 95 °C for 10 min, followed by 50 cycles of 95 °C for 15 s and 60 °C for 60 s.
# ABCG2 polymorphism (rs2231137) was studied using the CycleavePCR® assay (TaKaRa Bio Inc., Kusatsu, Shiga, Japan). The primers and probes for ABCG2 rs2231137 were designed using the CycleavePCR Assay Designer (SNPs, TaKaRa Bio Inc.): forward 5′- […]-3′; reverse 5′-[…]-3′; FAM-labeled probe 5′-(Eclipse)[…][G]TG(FAM)-3′; and HEX-labeled probe 5′-(Eclipse)TATCCCA[A]TGT(HEX)-3′. The real-time PCR reaction mix per reaction included 4 ng of DNA template diluted in 10.5 μL DNase‑Free distilled water, 12.5 μL CycleavePCR Reaction Mix, 0.5 μL each of forward and reverse primers, and 1 μL each of FAM/HEX-labeled probes in a total volume of 26 μL. The reactions were performed under the following conditions: initial denaturation at 95 °C for 10 s, followed by 50 cycles at 95 °C for 5 s, 55 °C for 10 s, and 72 °C for 20 s.
# After real-time PCR, the result of the allelic discrimination was plotted by reading the generated fluorescence using CFX Manager Software version 3.1 (Bio-Rad Laboratories). For quality control, all the polymorphisms were genotyped more than twice.
# clinical [4] = conditions: human, in vivo; remark: listed apart in the source
# [5] = cited from earlier work
# [6] = human, in vivo
# Method: This prospective, longitudinal observational study was designed and conducted at the Ageo Central General Hospital from February 2019 to July 2020 and Keio University Hospital from June 2020 to April 2022. The primary endpoint was the association of exposures to osimertinib, AZ5104, AZ7550, or germline polymorphisms with AE severity. […] Patients who were mentally or physically incapable of providing informed consent were excluded from the study. […] The study was conducted with adherence to the Declaration of Helsinki.
# [7] = Osimertinib AUC0-24 <4938 ng/mL*h, n = 29, any grade
# [8] = Osimertinib AUC0-24 <4938 ng/mL*h, n = 29, grade ≥2
# [9] = Osimertinib AUC0-24 ≥4938 ng/mL*h, n = 22, any grade
# [10] = Osimertinib AUC0-24 ≥4938 ng/mL*h, n = 22, grade ≥2
smiles,measurement,setting,value
C=CC(=O)Nc1cc(Nc2nccc(-c3c[nH]c4ccccc34)n2)c(OC)cc1N(C)CCN(C)C [AZ5104],"Clearance CL/F (θ1, θ4, θ6)",clinical [1],44.41 L/h
same,Coefficient of variation for clearance (CL/F),clinical [1],35%
same,"Inter-occasion variance of clearance (ω^2 CL,IOV)",clinical [1],0.034
same,Half-life,[2],52.6 h
same,Fraction of metabolite conversion from the parent,[2],25%
same,Potency against wild-type EGFR compared with the parent compound,wild-type EGFR,15 fold
C=CC(=O)Nc1cc(Nc2nccc(-c3cn(C)c4ccccc34)n2)c(OC)cc1N(C)CCNC [AZ7550],Association between AUC0–24 and grade ≥ 2 anorexia,"human, in vivo",significant association
same,Association between AUC0–24 and grade ≥ 2 increased creatinine,"human, in vivo",significant association
same,Association between AUC0–24 and grade ≥ 2 paronychia,"human, in vivo",significant association
same,Sensitivity of AUC0–24 cut-off for grade ≥ 2 AEs,"human, in vivo",49%
same,Specificity of AUC0–24 cut-off for grade ≥ 2 AEs,"human, in vivo",90%
same,Area under the ROC curve for predicting grade ≥ 2 AEs using AUC0–24,in vivo,0.651
same,Cut-off AUC0–24 to predict grade ≥ 2 AEs,in vivo,462 ng·h/mL
same,"AUC0–24 at steady state, median (IQR)",clinical [1],367 (275–516) ng/mL*h
same,"Clearance CL/F (θ1, θ4, θ6)",clinical [1],46.2 L/h
same,Coefficient of variation for clearance (CL/F),clinical [1],27%
same,Circulating exposure of active metabolite relative to the parent compound,[2],10%
same,Half-life,[2],72.7 h
same,Fraction of metabolite conversion from the parent,[2],25%
C=CC(=O)Nc1cc(Nc2nccc(-c3cn(C)c4ccccc34)n2)c(OC)cc1N(C)CCN(C)C [osimertinib],Association between AUC0–24 and grade ≥ 2 increased creatinine,Mann–Whitney U test,significant association
same,"Anorexia, % of patients",[7],(10.3) %
same,"Anorexia, No. of patients",[7],3
same,"Any adverse events, % of patients",[7],(100.0) %
same,"Any adverse events, No. of patients",[7],29
same,"Creatinine increased, % of patients",[7],(44.8) %
same,"Creatinine increased, No. of patients",[7],13
same,"Diarrhea, % of patients",[7],(58.6) %
same,"Diarrhea, No. of patients",[7],17
same,"Interstitial lung disease, % of patients",[7],(0.0) %
same,"Interstitial lung disease, No. of patients",[7],0
same,"Paronychia, % of patients",[7],(37.9) %
same,"Paronychia, No. of patients",[7],11
same,"Anorexia, % of patients",[8],(6.90) %
same,"Anorexia, No. of patients",[8],2
same,"Any adverse events, % of patients",[8],(69.0) %
same,"Any adverse events, No. of patients",[8],20
same,"Creatinine increased, % of patients",[8],(0.0) %
same,"Creatinine increased, No. of patients",[8],0
same,"Diarrhea, % of patients",[8],(0.0) %
same,"Diarrhea, No. of patients",[8],0
same,"Interstitial lung disease, % of patients",[8],(0.0) %
same,"Interstitial lung disease, No. of patients",[8],0
same,"Paronychia, % of patients",[8],(27.6) %
same,"Paronychia, No. of patients",[8],8
same,"Anorexia, % of patients",[9],(18.2) %
same,"Anorexia, No. of patients",[9],4
same,"Any adverse events, % of patients",[9],(100.0) %
same,"Any adverse events, No. of patients",[9],22
same,"Creatinine increased, % of patients",[9],(50.0) %
same,"Creatinine increased, No. of patients",[9],11
same,"Diarrhea, % of patients",[9],(45.5) %
same,"Diarrhea, No. of patients",[9],10
same,"Interstitial lung disease, % of patients",[9],(4.5) %
same,"Interstitial lung disease, No. of patients",[9],1
same,"Paronychia, % of patients",[9],(54.5) %
same,"Paronychia, No. of patients",[9],12
same,"Anorexia, % of patients",[10],(13.6) %
same,"Anorexia, No. of patients",[10],3
same,"Any adverse events, % of patients",[10],(95.5) %
same,"Any adverse events, No. of patients",[10],21
same,"Creatinine increased, % of patients",[10],(18.2) %
same,"Creatinine increased, No. of patients",[10],4
same,"Diarrhea, % of patients",[10],(13.6) %
same,"Diarrhea, No. of patients",[10],3
same,"Interstitial lung disease, % of patients",[10],(4.5) %
same,"Interstitial lung disease, No. of patients",[10],1
same,"Paronychia, % of patients",[10],(27.3) %
same,"Paronychia, No. of patients",[10],6
same,Sensitivity of AUC0–24 cut-off for grade ≥ 2 AEs,ROC curve,51%
same,Specificity of AUC0–24 cut-off for grade ≥ 2 AEs,ROC curve,90%
same,Any grade ≥ 2 AEs in patients with ABCG2 rs2231137 G/A or A/A genotypes,[3],higher frequency
same,Association of ABCB1 rs1128503 C > T (C/T and T/T genotypes) with any grade ≥ 2 AEs,[3],significant association
same,Association of ABCB1 rs2032582 G > T/A (A/T and G/T genotypes) with any grade ≥ 2 skin disorders,[3],associated
same,Association of ABCB1 rs2032582 G > T/A (A/T and G/T genotypes) with grade ≥ 2 lymphocyte count decrease,[3],associated
same,Association of EGFR rs2293348 C > T (C/T genotype) with any severe AEs,[3],associated with any severe AEs
same,Association of EGFR rs2293348 C > T (C/T genotype) with grade ≥ 1 or ≥ 2 anorexia,[3],significantly associated
same,Association of EGFR rs4947492 G > A (A/A genotype) with any severe AEs,[3],associated with any severe AEs
same,Association of polymorphisms in POR with any AEs or PK,[3],not significantly associated
same,"Clearance CL/F (θ1, θ4, θ6)",clinical [1],17.37 L/h
same,Coefficient of variation for clearance (CL/F),clinical [1],30%
same,"Volume of distribution V/F (θ2, θ5, θ7)",clinical [1],1386 L
same,Vd/F,"clinical [1]; Volume of distribution V/F (θ2, θ5, θ7)",1270 L
same,Half-life,[2],59.7 h
same,Oral bioavailability,[2],69.8%
same,AUC(0-t),clinical [4],5530 ng·h/mL
same,Patients experiencing grade ≥ 2 adverse events,[5],over 80%
same,Patients experiencing grade ≥ 3 adverse events,[5],> 30%
same,Association of EGFR-TKI treatment line with severe AEs,[6],higher frequency of severe AEs in patients receiving therapy as first-line treatment
same,Severe liver dysfunction within the observation period,[6],No patient
same,Patients who experienced severe AEs (grade 3 or leading to dose discontinuation),[6]; 3 months,Approximately 25%
same,Patients with grade ≥ 2 skin disorders (most prevalent grade ≥ 2 AE),[6]; 3 months,63%
same,Patients with interstitial lung disease leading to treatment discontinuation,[6]; 3 months,2.0%
